According to patent US20100016353A1, “BENZOIMIDAZOLE DERIVATIVES USEFUL AS ANTIPROLIFERATIVE AGENTS” (priority 2004, published 2010):

Key:
[1] = Metabolite identification, human cryopreserved hepatocyte incubation of parent compound; format: in vitro ADME; details: parent incubated up to four hours
Procedure: (§1) Hepatocytes: Rat, dog and human cryopreserved hepatocyte incubations were performed using 1-{2-[5-(3-Methyl-oxetan-3-ylmethoxy)-benzoimidazol-1-yl]-quinolin-8-yl}-piperidin-4-ylamine. Rat, dog and human cryopreserved hepatocytes were obtained from In Vitro Technologies, Baltimore, Md. and suspended in Williams E Media, available from Fisher-Scientific, to a final cell density of 1×10^6 viable cells/mL. 1-{2-[5-(3-Methyl-oxetan-3-ylmethoxy)-benzoimidazol-1-yl]-quinolin-8-yl}-piperidin-4-ylamine was incubated in these hepatocyte suspensions at a final concentration of […] at 37° C. in a shaking water bath for up to four hours. A 5 mL aliquot was removed from each incubation mixture immediately and at four hours after addition of substrate. The samples were prepared for analysis by mixing with two volumes of acetonitrile followed by centrifugation to pellet precipitated proteins. The […] were evaporated to dryness before analysis. Dried samples were reconstituted in 300 μL 50/50 10 mM ammonium formate, pH 3.0/acetonitrile, and 10 μL aliquots were analyzed by LC/MS/MS. 1-{2-[5-(2-Methoxy-ethoxy)-benzoimidazol-1-yl]-quinolin-8-yl}-piperidin-4-ylamine was incubated in dog hepatocytes under the same conditions as a positive control.
(§2) Separation of 1-{2-[5-(3-Methyl-oxetan-3-ylmethoxy)-benzoimidazol-1-yl]-quinolin-8-yl}-piperidin-4-ylamine and its metabolites in all samples was accomplished on a Zorbax SB-C18 reverse phase column (5 μm, 4.6×150 mm) at a flow rate of 1.0 mL/min. The mobile phase consisted of 10 mM ammonium formate, pH 3.0, (A) and acetonitrile (B). After injection of the sample, the column was washed with 10% B for 5 minutes followed by resolution of the metabolites with a linear gradient from 10% to 50% B over a 20-minute period. A 5-minute wash with 90% B followed by a 7-minute re-equilibration to 10% B was used between subsequent injections.
(§3) All Samples were analyzed by a Finnigan TSQ7000 mass spectrometer operated in positive ion mode with in-line ultraviolet detection (Shimadzu, λ=254 nm). Ionspray voltage and capillary temperature were maintained at 4.5 kV and 350 degrees Celsius, respectively. Product ion spectra were obtained with CID of 35 V; further fragmentation was obtained by conducting product ion scans with source CID of 10 V. Neutral loss scans of 176 (for glucuronide detection) were conducted with CID of 30 V.
(§4) The metabolites were initially identified by molecular ion (Q1) scans of the sample mixture. Potential metabolites were characterized by fragmentation of the metabolite molecular ions and comparison of the resulting fragmentation patterns with the 1-{2-[5-(3-Methyl-oxetan-3-ylmethoxy)-benzoimidazol-1-yl]-quinolin-8-yl}-piperidin-4-ylamine product mass spectrum.

[2] = Metabolite identification, rat liver microsome incubation of parent compound; format: in vitro ADME; details: for Relative Abundance of metabolite, Rat Liver Microsomes: parent incubated 1 h with NADPH; for Relative Abundance of metabolite, RLM-NADPH ctrl: rat liver microsomes, control without NADPH
Procedure: (§5) Microsomes: 1-{2-[5-(3-Methyl-oxetan-3-ylmethoxy)-benzoimidazol-1-yl]-quinolin-8-yl}-piperidin-4-ylamine (10 μM) was incubated in mouse, rat, dog, monkey and human liver microsomes and collected for analysis. 1-{2-[5-(3-Methyl-oxetan-3-ylmethoxy)-benzoimidazol-1-yl]-quinolin-8-yl}-piperidin-4-ylamine, (final concentration […]) was incubated in mouse (0.45 mg/mL protein), rat ([…] protein), dog ([…] protein), monkey (0.42 mg/mL protein) and human liver microsomes (1.56 mg/mL protein) containing MgCl2 (10 mM) and NADPH (1 mM) in potassium phosphate buffer (100 mM, pH 7.4) at 37° C. The total volume of each reaction mixture was 5 mL containing a total cytochrome P450 concentration of […]. Each mixture was preincubated for 10 minutes before addition of NADPH to initiate the reaction. The reaction was stopped one hour after addition of NADPH by adding two volumes of acetonitrile to the reaction mixture. […] Samples were prepared for analysis by centrifugation at 300 rpm to pellet the precipitated proteins and by evaporating the supernatant to dryness. The dried […] were reconstituted in 600 μL 50/50 10 mM ammonium formate, pH 3.0/acetonitrile, and 10 μL aliquots were analyzed by liquid chromatography and mass spectroscopy (LC/MS/MS). 1-{2-[5-(2-Methoxy-ethoxy)-benzoimidazol-1-yl]-quinolin-8-yl}-piperidin-4-ylamine was incubated in dog liver microsomes under the same conditions as a positive control.
as §2, §3, §4

[3] = Metabolite identification in dog bile after administration of parent compound; format: in vivo, beagle dogs; details: for Relative Abundance of metabolite, Dog Bile (IV): only 2-4 hr samples analyzed, cannot distinguish between M6 and M7; for Excretion in bile: dog, after 5.0 mg/kg oral administration of parent
[4] = Metabolite identification, rat cryopreserved hepatocyte incubation of parent compound; format: in vitro ADME; details: parent incubated up to four hours
Procedure: as §1, §2, §3, §4

[5] = Metabolite identification, dog liver microsome incubation of parent compound; format: in vitro ADME; details: for Relative Abundance of metabolite, DLM-NADPH ctrl: dog liver microsomes, control without NADPH; for Relative Abundance of metabolite, Dog Liver Microsomes: parent incubated 1 h with NADPH
Procedure: as §5, §2, §3, §4

[6] = Metabolite identification, human liver cytosol incubation of parent compound; format: in vitro ADME; details: for Relative Abundance of metabolite, Human Liver Cytosol: parent incubated one hour; as to Relative Abundance of metabolite, Human Liver Cytosol: key: −: metabolite not observed; +: minor metabolite; +++: major metabolite
Procedure: (§6) Cytosol: 1-{2-[5-(3-Methyl-oxetan-3-ylmethoxy)-benzoimidazol-1-yl]-quinolin-8-yl}-piperidin-4-ylamine (10 μM) was incubated and prepared for analysis. Cryopreserved human liver cytosol from Tissue Transformation Technologies Inc., Edison, N.J., (lot: HHC-0255, ˜20 mg/mL) and dog liver cytosol (˜35 mg/mL) were thawed on ice immediately before the incubation. The cytosol was diluted 10-fold in 100 mM potassium phosphate buffer (pH 7.4) before addition of 1-{2-[5-(3-Methyl-oxetan-3-ylmethoxy)-benzoimidazol-1-yl]-quinolin-8-yl}-piperidin-4-ylamine (final concentration […]) for a final incubation volume of 2 mL. Samples were incubated for one hour in a 37° C. water bath, then quenched with two volumes of acetonitrile. Samples were vortexed and subsequently centrifuged at 3000 rpm. Samples were prepared for analysis by centrifugation at 3000 rpm to pellet the precipitated proteins and by evaporating the supernatant to dryness. The samples were reconstituted in 300 μL 50/50 10 mM ammonium formate, pH 3.0/acetonitrile. A 10 μL reconstituted aliquot was analyzed by LC/MS/MS. 1-{2-[5-(2-Methoxy-ethoxy)-benzoimidazol-1-yl]-quinolin-8-yl}-piperidin-4-ylamine was incubated in human and dog liver cytosol under the same conditions as a positive control.
as §2, §3, §4

[7] = Metabolite identification, dog cryopreserved hepatocyte incubation of parent compound; format: in vitro ADME; details: parent incubated up to four hours
Procedure: as §1, §2, §3, §4

[8] = Metabolite identification in dog plasma after intravenous administration of parent compound; format: in vivo, beagle dogs; details: for Relative Abundance of metabolite, Dog Plasma (IV): 2.0 mg/kg intravenous parent, 20 min, 40 min and 1 h samples
Procedure: Dog Plasma and Bile: Dog plasma was collected from beagle dogs following intravenous administration (2.0 mg/kg) of 1-{2-[5-(3-Methyl-oxetan-3-ylmethoxy)-benzoimidazol-1-yl]-quinolin-8-yl}-piperidin-4-ylamine. A 200 μL plasma sample from each dog was pooled for each timepoint. Three volumes of acetonitrile were added to the pooled plasma samples to precipitate proteins. Following centrifugation, the supernatant was recovered and dried at 37° C. under nitrogen and reconstituted in 150 μL 50/50 10 mM ammonium formate, pH 3.0/acetonitrile. A 20 μL aliquot was analyzed by LC/MS/MS.
as §2, §3, §4

[9] = Metabolite identification, dog liver cytosol incubation of parent compound; format: in vitro ADME; details: for Relative Abundance of metabolite, Dog Liver Cytosol: parent incubated one hour
Procedure: as §6, §2, §3, §4

[10] = Metabolite identification, human liver microsome incubation of parent compound; format: in vitro ADME; details: for Relative Abundance of metabolite, HLM-NADPH ctrl: human liver microsomes, control without NADPH; for Relative Abundance of metabolite, Human Liver Microsomes: parent incubated 1 h with NADPH, relative peak height on UV chromatogram
Procedure: as §5, §2, §3, §4

[11] = molecular target: T1, microsomal epoxide hydrolase (Homo sapiens, UniProt P07099); assay: Microsomal epoxide hydrolase inhibitor studies; format: in vitro ADME
T1 sequence (P07099 1-455): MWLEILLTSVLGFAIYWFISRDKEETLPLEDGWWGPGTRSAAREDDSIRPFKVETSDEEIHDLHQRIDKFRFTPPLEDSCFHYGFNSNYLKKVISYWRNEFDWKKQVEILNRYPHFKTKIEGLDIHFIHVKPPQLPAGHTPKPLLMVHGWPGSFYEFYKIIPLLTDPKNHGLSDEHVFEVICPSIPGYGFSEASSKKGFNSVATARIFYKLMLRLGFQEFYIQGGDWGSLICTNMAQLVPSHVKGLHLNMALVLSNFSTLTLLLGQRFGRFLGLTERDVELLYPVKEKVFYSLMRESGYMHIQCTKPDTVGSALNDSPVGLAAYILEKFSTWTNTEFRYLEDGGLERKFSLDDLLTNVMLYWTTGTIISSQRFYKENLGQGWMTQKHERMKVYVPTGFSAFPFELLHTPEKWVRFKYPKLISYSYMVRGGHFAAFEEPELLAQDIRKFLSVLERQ

Compound | Relative Abundance of metabolite, Human Hepatocytes [1] | Relative Abundance of metabolite, Rat Liver Microsomes [2] | Relative Abundance of metabolite, RLM-NADPH ctrl [2] | Relative Abundance of metabolite, Dog Bile (IV) [3] | Relative Abundance of metabolite, Rat Hepatocytes [4] | Relative Abundance of metabolite, DLM-NADPH ctrl [5] | Relative Abundance of metabolite, Dog Liver Microsomes [5] | Relative Abundance of metabolite, Human Liver Cytosol [6] | Relative Abundance of metabolite, Dog Hepatocytes [7] | Relative Abundance of metabolite, Dog Plasma (IV) [8] | Relative Abundance of metabolite, Dog Liver Cytosol [9] | Relative Abundance of metabolite, HLM-NADPH ctrl [10] | Relative Abundance of metabolite, Human Liver Microsomes [10] | Excretion in bile [3] | also measured
NC1CCN(c2cccc3ccc(-n4cnc5cc(O)ccc54)nc23)CC1 [Metabolite M8, 1-[8-(4-Amino-piperidin-1-yl)-quinolin-2-yl]-1H-benzoimidazol-5-ol] | − | − | − | + (minor metabolite) | − | − | − | − | − | − | − | − | − |  | Observation in bile ([3]; dog bile 2-4 hr post-dose of parent): observed in bile
CC(CO)(CO)COc1ccc2c(c1)ncn2-c1ccc2cccc(N3CCC(N)CC3)c2n1 [Metabolite M1, 2-{1-[8-(4-Amino-piperidin-1-yl)-quinolin-2-yl]-1H-benzoimidazol-5-yloxymethyl}-2-methyl-propane-1,3-diol] | +++ (major metabolite) | +++ (major metabolite) | + (minor metabolite) | +++ (major metabolite) | +++ (major metabolite) | +++ (major metabolite) | +++ (major metabolite) | − | +++ (major metabolite) | +++ (major metabolite) | +++ (major metabolite) | + (minor metabolite) | +++ (major metabolite) | excreted in bile | Formation of M1, cofactor dependence ([2]; rat): NADPH dependent; Formation of M1, cytochrome P450 mediation ([5]; dog): not mediated by cytochrome P450; Metabolite status in dog plasma ([8]; twenty minutes to one hour after 2.0 mg/kg intravenous administration of parent): major metabolite; Metabolite status in dog liver cytosolic incubations [9]: predominant metabolite; Formation of M1, cofactor dependence ([10]; human): NADPH dependent
CC1(COc2ccc3c(c2)ncn3-c2ccc3cccc(N4CCC(N)CC4)c3n2)COC1 [1-{2-[5-(3-Methyl-oxetan-3-ylmethoxy)-benzoimidazol-1-yl]-quinolin-8-yl}-piperidin-4-ylamine, reference compound] |  |  |  |  |  |  |  |  |  |  |  |  |  | appears to be excreted in bile | Substrate for microsomal epoxide hydrolase [11]: not a substrate; Metabolites in human liver cytosolic incubations ([6]; parent incubated in human liver cytosol): No metabolites were observed
CC(CO)(COc1ccc2c(c1)ncn2-c1ccc2cccc(N3CCC(N)CC3)c2n1)C(=O)O (stereo not drawn) [Metabolite M2, 3-{1-[8-(4-Amino-piperidin-1-yl)-quinolin-2-yl]-1H-benzoimidazol-5-yloxy}-2-hydroxymethyl-2-methyl-propionic acid] | +++ (major metabolite) | − | − | + (minor metabolite) | +++ (major metabolite) | − | + (minor metabolite) | − | + (minor metabolite) | − | − | − | +++ (major metabolite) | excreted in bile | 
CC(CO)(COc1ccc2c(c1)ncn2-c1ccc2cccc(N3CCC(N)CC3)c2n1)COC1O[C@H](C(=O)O)[C@@H](O)[C@H](O)[C@H]1O (stereo in doubt) [Metabolite M5, 6-(3-{1-[8-(4-Amino-piperidin-1-yl)-quinolin-2-yl]-1H-benzoimidazol-5-yloxy}-2-hydroxymethyl-2-methyl-propoxy)-3,4,5-trihydroxy-tetrahydro-pyran-2-carboxylic acid] | − |  |  | − | − |  |  | − | + (minor metabolite) | − | − |  |  |  | 
